The values below come from patent US5504116A (Research Foundation of State University of New York, priority 1994, dated 1996).

Entries after “also recorded” stand apart in the source; their conditions may differ.

For series [1], the target named is T1, voltage-gated calcium channel (ICa) of uterine myocytes (Rattus norvegicus, UniProt P22002).
T1 construct: Individual myocytes were freshly isolated from 14 to 21-day pregnant uteri; endogenous in cells; host or cells: freshly dissociated longitudinal myometrial myocytes of 14 to 21-day pregnant Sprague-Dawley rats
The series can be described thus: whole-cell patch clamp, inward calcium current (ICa) of freshly dissociated pregnant rat uterine myocytes. The class given is cell-based. The text has this: Holding potential, -80 mV; depolarized by 35 ms steps from -40 mV in 10 mV increments to 30 mV. […] Traces shown represent inward currents in response to applied voltage commands, outward K^+ currents having been blocked by the use of Cs^+ -filled electrode. […] (E) Current-voltage (I--V) relations of INa in panels (A--D). Symbols correspond to those under current traces. (F) I--V relations of ICa.
Hollow symbols for I'Ca /ICa in same myocytes used for I'Na /INa values. […] P=I'Na /INa.
All experiments in this study were performed under institutional guidelines for the care and use of laboratory animals (approval #92-055). Rats (Sprague-Dawley) were mated individually in the inventors' laboratory, and the duration of gestation was timed from the morning of the first discovery of cervical plugs. […] Individual myocytes were freshly isolated from 14 to 21-day pregnant uteri. Details of the methods of isolating the myocytes in a near-physiological condition, and associated patch-clamping can be found in other publications^7,15. Briefly, strips of isolated longitudinal myometrium were incubated in collagenase, and then subjected to mild mechanical disruption, until individual myocytes in desired amounts were obtained. For the work described herein, such single freshly dissociated myocytes were studied in the whole-cell configuration of patch-clamping^9.
The bath solution in which the individual myocytes were studied contained (in mM): NaCl, 135; KCl, 5.4; MgCl2, 1; CaCl2, 3; HEPES, 10; and glucose 5. […] The pipette solution contained (in mM): CsCl, 120; EGTA, 1; Na2 ATP, 2; HEPES, 10; K-pyruvate, 5; K-oxaloacetate, 5; and K-succinate, 5. All solutions were adjusted to pH 7.3; all experiments were done at room temperature of ca. 22° C. In the whole-cell mode of recording, rupture of the cell membrane allows access of the pipette solution to the cell interior. The reason for using CsCl rather than KCl is that the Cs^+ effectively blocks outward K^+ currents, and allows the inward currents to be isolated for study. […] The basic properties of the voltage-gated sodium and calcium channels are described in detail in Yoshino et al^7.
The inward currents have been isolated by using a pipette solution containing 120 mM Cs^+.
In general terms: Patch clamp records ionic current or voltage across a cell membrane.

For series [2], the system named is K+ channels (outward potassium currents) of uterine myocytes. The series can be described thus: whole-cell patch clamp, outward potassium currents of late-pregnant rat uterine myocytes. The class given is cell-based.
Another series has as its system pregnant rats. The series can be described thus: effect on the duration of pregnancy in rats (intramuscular injections). Format: in vivo, rat. To be noted: for term (duration of gestation): control 22.33±0.16 days, p <0.01.
In the next series the test system is fetuses and newborn rats. As to conditions: rat, in vivo.
The conditions of series [3]: dosages used in continuous epidural anesthesia for labor; cited from earlier work.
Series [4] deals with T1, voltage-gated calcium channel (ICa) of uterine myocytes. As to conditions: 2 μM nisoldipine; cited from earlier work.
The next series deals with preterm labor. To be noted: cited from earlier work.

T1 sequence (P22002 whole entry): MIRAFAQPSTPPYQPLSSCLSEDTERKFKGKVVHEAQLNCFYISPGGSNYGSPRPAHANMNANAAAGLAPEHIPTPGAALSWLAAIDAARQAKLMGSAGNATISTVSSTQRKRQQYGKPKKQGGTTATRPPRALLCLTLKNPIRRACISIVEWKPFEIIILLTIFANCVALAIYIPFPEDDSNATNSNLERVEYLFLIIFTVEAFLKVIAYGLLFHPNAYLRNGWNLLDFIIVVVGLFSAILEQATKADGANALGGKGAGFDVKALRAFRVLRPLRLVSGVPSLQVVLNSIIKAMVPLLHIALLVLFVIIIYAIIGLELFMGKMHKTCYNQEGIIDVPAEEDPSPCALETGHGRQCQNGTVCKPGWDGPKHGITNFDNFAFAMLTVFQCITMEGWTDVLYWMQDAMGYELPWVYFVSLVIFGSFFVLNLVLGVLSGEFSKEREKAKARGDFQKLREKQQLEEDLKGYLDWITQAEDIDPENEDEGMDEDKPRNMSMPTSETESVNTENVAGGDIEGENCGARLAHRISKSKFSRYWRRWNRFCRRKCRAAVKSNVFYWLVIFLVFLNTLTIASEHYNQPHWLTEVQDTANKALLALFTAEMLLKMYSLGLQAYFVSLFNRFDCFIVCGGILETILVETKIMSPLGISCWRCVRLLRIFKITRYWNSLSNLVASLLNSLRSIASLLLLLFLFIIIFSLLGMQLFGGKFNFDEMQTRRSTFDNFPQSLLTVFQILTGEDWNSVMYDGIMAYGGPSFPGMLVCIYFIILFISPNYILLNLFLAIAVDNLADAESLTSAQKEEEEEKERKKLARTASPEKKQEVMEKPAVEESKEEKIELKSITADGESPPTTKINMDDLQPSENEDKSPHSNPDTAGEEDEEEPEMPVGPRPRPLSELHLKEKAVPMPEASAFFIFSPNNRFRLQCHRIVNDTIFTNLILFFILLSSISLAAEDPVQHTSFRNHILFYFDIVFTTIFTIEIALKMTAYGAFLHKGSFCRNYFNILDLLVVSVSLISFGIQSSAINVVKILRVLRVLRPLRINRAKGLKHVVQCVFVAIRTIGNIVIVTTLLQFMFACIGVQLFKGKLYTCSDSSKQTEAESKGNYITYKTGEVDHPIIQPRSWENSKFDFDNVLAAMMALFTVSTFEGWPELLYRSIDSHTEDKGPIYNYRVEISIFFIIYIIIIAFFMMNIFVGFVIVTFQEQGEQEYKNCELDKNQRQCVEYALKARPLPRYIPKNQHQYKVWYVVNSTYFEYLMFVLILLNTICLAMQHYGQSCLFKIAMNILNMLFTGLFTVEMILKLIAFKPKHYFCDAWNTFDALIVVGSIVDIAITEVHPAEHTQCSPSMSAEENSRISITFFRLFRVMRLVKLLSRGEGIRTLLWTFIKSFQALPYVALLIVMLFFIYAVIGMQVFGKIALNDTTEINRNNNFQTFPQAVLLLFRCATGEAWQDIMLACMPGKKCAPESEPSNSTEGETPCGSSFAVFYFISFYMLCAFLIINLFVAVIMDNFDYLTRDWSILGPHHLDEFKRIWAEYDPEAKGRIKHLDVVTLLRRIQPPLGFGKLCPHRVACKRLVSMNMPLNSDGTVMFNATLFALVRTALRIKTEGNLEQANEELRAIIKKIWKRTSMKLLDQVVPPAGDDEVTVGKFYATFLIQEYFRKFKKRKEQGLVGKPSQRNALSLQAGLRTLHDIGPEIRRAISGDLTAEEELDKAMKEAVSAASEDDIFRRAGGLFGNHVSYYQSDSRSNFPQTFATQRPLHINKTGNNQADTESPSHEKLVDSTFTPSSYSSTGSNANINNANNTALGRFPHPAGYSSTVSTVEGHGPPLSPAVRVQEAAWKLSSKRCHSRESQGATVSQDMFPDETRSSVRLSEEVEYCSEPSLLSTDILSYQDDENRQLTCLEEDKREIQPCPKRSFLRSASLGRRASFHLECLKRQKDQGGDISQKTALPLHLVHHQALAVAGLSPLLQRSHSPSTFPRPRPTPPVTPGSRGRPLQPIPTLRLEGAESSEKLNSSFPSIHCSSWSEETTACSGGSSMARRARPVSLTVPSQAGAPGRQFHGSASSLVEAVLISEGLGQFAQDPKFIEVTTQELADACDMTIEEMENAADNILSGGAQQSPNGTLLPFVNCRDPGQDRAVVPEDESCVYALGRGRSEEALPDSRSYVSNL
T1 sequence (P54290 25-944 partner limits assumed): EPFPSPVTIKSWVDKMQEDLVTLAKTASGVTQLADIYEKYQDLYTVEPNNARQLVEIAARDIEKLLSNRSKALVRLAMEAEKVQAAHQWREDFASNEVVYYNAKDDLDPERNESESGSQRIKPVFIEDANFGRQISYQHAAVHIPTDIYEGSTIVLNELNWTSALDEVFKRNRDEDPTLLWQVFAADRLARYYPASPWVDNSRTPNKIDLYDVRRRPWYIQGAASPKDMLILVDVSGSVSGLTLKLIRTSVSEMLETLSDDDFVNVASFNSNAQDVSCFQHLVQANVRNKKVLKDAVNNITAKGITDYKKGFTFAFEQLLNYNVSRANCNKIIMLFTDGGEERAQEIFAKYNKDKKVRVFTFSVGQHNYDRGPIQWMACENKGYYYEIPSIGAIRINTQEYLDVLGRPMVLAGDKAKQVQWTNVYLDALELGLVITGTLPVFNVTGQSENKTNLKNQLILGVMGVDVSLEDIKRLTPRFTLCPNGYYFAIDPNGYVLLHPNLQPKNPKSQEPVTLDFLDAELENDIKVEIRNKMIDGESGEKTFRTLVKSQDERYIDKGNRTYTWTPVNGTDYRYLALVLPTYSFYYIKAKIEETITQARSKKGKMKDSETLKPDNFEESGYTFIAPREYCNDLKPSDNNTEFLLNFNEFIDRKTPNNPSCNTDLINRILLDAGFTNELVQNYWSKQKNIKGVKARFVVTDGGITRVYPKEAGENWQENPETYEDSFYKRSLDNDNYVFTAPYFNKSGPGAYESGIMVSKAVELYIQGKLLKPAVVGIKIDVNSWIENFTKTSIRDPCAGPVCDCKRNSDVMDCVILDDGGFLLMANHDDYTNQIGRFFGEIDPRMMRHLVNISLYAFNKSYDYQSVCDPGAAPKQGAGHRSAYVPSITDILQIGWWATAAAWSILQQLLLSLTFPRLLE
T1 sequence (P54290 945-1091 partner limits assumed): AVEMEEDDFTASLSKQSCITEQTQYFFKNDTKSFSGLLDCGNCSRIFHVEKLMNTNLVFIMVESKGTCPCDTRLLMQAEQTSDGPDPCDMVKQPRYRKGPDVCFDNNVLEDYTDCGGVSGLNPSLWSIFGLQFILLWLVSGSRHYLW
Description for fetuses and newborn rats: To avoid possible post-term complications, it was sacrificed.

For `CCN(CC)CC(=O)Nc1c(C)cccc1C` [lidocaine], the “ICa, effect in words” value in series [1] (0.02 mM lidocaine, 5 min (FIG. 3A)) is recorded as “no detectable difference”; in series [1] (0.1 mM and 0.2 mM lidocaine, 5 min (FIG. 3B, C)), “slight reductions of the tail currents”. In addition, the “Ca2+ currents, effect in words” value in series [1] (0.5 mM lidocaine (FIG. 2D)) is given as “reduced slightly”. Moreover, the “ICa and tail-current, effect in words” value in series [1] (1 mM lidocaine, 3 min (FIG. 2B)) is given as “only slightly reduced”. In addition, the remaining activity at 1000 µM in series [1] (0.05 h, read-out: ICa relative to control (pre-lidocaine)) was determined as 93%. Further, the remaining activity at 500 µM in series [1] (0.05 h, read-out: tail ICa remaining relative to recovery state (C)) is 78%. The “effects on myometrial K+ or Ca2+ channels at concentrations blocking sodium channels” value in series [1] (Ca2+ channels, uterine myocytes) is listed as “no effects”; in series [2] (K+ channels, uterine myocytes), “no effects”. In series [1] (concentrations of lidocaine up to 0.5 mM (FIG. 4)), the “effect on ICa, in words” value is reported as “very little effect”. Also, in series [1] (summary of the examples), the “effect on coexisting voltage-gated calcium channels, summary in words” value is given as “very little effect”. The “effect on coexisting potassium channels, summary in words” value in series [2] (summary of the examples) is reported as “very little effect”. In addition, the “effect on outward K+ current” value in series [2] (up to 0.5 mM lidocaine, 5 min, late-pregnant uteri (FIG. 1)) is on record as “insignificant effects; also recorded: rather minor”. In addition, the day of delivery result with pregnant rats (2 mg/kg i.m. twice daily, two rats, both) is listed as “delivered on the 23rd day”. In the series with pregnant rats (6 mg/kg i.m. twice daily, one rat, sacrificed), the “duration of pregnancy, single rat” value is listed as “continued into the 26th day”. Also, the “term (duration of gestation)” value was determined as 23.63 ± 0.39 days in the series with pregnant rats (2, 4 or 6 mg/kg i.m. twice daily from day-20, 8 rats) and 23.83 ± 0.40 days with pregnant rats (4 or 6 mg/kg i.m. twice daily from day-20, 6 rats). Further, in the series on pregnant rats (i.m. lidocaine, 22-day gestation), the “difference in duration of gestation versus control” value turned out to be 1.5 days. The “lengthening of the term / prolongation of gestation” value in the series on pregnant rats (i.m. lidocaine, pregnant rats) worked out at 7%. Also, the “motor activities of fetuses at birth or newborn several hours after birth” value in the series on fetuses and newborn rats is listed as “no discernable differences”. For the same compound, the “condition of fetuses at autopsy” value with fetuses and newborn rats (6 mg/kg) is “healthy and indistinguishable from those of control newborns, except for their larger sizes”. Further, the “serious side-effects on either the mother or the fetus” value in series [3] is on record as “absence of serious side-effects”.

Turning to `COC(=O)C1=C(C)NC(C)=C(C(=O)OCC(C)C)C1c1ccccc1[N+](=O)[O-]` (stereo not shown) [nisoldipine], in series [4], the “block of Ca2+ current” value is reported as “blocked”.

On to `CC(NCCc1ccc(O)cc1)C(O)c1ccc(O)cc1` (stereo not shown) [ritodrine], for which, in the series with preterm labor, the “duration of effectiveness in preterm labor” value is reported as “effective for only a few days”, the “effect on pregnancy outcome” value is “does not affect the pregnancy outcome” and the side-effects result is “can produce cardiovascular side-effects in some recipients”.
